The record followed here is US9221796B2, “Selective NR2B antagonists” (BRISTOL-MYERS SQUIBB COMPANY, priority 2014, dated 2015).

Structures are written as SMILES. Where two headings read alike, the source gives them in different places.

A word on the Ki: it is the equilibrium dissociation constant of an inhibitor or competing ligand from its target.

One test deals with mice. The test is described as follows: Mouse Forced Swim Test (mFST). The test is classed as in vivo. The conditions noted are these: 1 mg/Kg i.v., 15 min before swim session, 6 min test. The method, then: Mouse Forced Swim Test (mFST).
Forced Swim Test (FST) is an animal model used to assess antidepressant compounds in preclinical studies. The FST was performed similar to the method of Porsolt et al. with modifications (Porsolt R D, Bertin A, Jalfre M. Behavioral despair in mice: a primary screening test for antidepressants. Arch Int Pharmacodyn Thér 1977; 229:327-36). In this paradigm, mice are forced to swim in an inescapable cylinder filled with water. Under these conditions, mice will initially try to escape and eventually develop immobility behavior; this behavior is interpreted as a passive stress-coping strategy or depression-like behavior. […] The duration of immobility was evaluated during the total 6 min of the test and expressed as duration (sec) of immobility. […] All testing sessions were recorded with a video camera (Sony Handicam, Model: DCR—HC38E; PAL) and scoring was done using the Forced Swim Scan, Version 2.0 software (Clever Systems Inc., Reston, Va., USA; see Hayashi E, Shimamura M, Kuratani K, Kinoshita M, Hara H. Automated experimental system capturing three behavioral components during murine forced swim test. Life Sci. 2011 Feb. 28; 88(9-10):411-7 and Yuan P, Tragon T, Xia M, Leclair C A, Skoumbourdis A P, Zheng W, Thomas C J, Huang R, Austin C P, Chen G, Guitart X. Phosphodiesterase 4 inhibitors enhance […] in rodents. […]

For the next test, the target named is NR2B-subtype receptors (Mus musculus (Mouse), UniProt P35438+Q01097). The test can be described thus: Ex vivo occupancy assay. Conditions: mice, after i.v. dosing. The test is classed as in vivo. The procedure:
7-9 weeks old male CD-1 mice were dosed intravenously in a vehicle consisting of 10% dimethylacetamide, 40% PEG-400, […], and 30% water with experimental compounds and the forebrains were harvested 15 minutes […] by decapitation. The brain samples were immediately snap-frozen and stored at −80° C. On the following day, the dosed brain samples were thawed on ice for 15-20 minutes followed by homogenization using Polytron for 10 seconds in cold homogenization buffer composed of 50 mM KH2PO4 (pH adjusted to 7.4 with KOH), 1 mM EDTA, 0.005% Triton X 100 and protease inhibitor cocktail (Sigma Aldrich). The crude homogenates were further homogenized using a Dounce homogenizer and the homogenized membrane aliquots from all animals were flash-frozen and stored at −80° C. until further use. The whole homogenization process was performed on ice.
For determining occupancy, the membrane homogenates were first thawed on ice and then needle-homogenized using a 25 gauge needle. The homogenized membrane (6.4 mg/ml) was added to a 96-well plate followed by addition of ^3H Ro 25-6981 (6 nM). […] The filter plates were dried at 50° C. for 20 mins, incubated with microscint 20 for 10 minutes and read on TopCount (Perkin Elmer). […] Non-specific binding was determined using 10 μM Ro 25-6981 added to the wells containing membrane homogenates from vehicle-dosed animals. […]

Test [1] addresses NR2B-subtype NMDA receptors (Rattus norvegicus (Rat), UniProt P35439+Q00960). The test can be described thus: Radioligand binding assay (3H Ro 25-6981 competition, forebrain membranes). The conditions noted are these: 3H Ro 25-6981 (4 nM). Put shortly:
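Rat forebrain membranes competed against [3H]Ro 25-6981 for 1 hr at room temperature, then filtered onto PEI-treated GF/B plates and counted by scintillation. CPM converted to % inhibition, concentration-response curves fitted, Ki derived from at least two experiments.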

NR2B-subtype NMDA receptors, sequence (Q00960 27-1482, other chains not shown): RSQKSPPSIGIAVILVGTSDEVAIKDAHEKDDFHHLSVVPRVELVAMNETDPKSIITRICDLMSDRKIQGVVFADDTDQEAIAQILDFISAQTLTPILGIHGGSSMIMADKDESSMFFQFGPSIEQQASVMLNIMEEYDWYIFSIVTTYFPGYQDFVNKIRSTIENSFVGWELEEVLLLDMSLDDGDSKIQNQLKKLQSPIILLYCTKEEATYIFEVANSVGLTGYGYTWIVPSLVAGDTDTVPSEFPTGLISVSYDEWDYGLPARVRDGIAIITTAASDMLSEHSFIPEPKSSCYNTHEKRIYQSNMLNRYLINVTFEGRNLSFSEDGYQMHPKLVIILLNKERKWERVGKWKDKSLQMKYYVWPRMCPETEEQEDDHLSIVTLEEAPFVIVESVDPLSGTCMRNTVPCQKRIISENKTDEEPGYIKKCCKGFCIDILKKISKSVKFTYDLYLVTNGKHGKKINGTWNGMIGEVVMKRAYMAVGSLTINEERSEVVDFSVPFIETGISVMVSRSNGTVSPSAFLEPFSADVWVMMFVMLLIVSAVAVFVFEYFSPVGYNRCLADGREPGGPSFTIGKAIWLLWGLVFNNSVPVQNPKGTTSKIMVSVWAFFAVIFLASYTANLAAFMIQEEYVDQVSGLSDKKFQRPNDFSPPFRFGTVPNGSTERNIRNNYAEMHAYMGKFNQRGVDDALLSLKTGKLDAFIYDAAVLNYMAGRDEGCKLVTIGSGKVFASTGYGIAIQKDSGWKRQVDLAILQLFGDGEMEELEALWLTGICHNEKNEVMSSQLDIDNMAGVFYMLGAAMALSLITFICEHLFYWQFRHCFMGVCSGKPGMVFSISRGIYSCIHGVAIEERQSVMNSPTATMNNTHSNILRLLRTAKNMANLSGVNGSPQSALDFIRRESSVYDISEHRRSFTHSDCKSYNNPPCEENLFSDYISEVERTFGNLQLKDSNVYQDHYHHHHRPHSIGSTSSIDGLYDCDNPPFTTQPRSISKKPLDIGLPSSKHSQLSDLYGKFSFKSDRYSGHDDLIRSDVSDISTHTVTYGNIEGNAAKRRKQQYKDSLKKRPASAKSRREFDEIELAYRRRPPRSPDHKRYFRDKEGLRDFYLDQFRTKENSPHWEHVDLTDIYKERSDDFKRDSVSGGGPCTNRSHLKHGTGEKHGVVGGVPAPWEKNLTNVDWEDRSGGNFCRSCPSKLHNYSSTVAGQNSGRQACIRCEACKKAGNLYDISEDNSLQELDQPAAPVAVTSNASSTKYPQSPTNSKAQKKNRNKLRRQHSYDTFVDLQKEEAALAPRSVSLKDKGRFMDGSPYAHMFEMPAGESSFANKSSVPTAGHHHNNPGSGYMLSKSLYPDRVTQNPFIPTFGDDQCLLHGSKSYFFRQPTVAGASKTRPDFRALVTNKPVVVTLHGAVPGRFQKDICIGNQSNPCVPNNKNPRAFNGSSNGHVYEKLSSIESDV
NR2B-subtype receptors, sequence (Q01097 27-1482, other chains not shown): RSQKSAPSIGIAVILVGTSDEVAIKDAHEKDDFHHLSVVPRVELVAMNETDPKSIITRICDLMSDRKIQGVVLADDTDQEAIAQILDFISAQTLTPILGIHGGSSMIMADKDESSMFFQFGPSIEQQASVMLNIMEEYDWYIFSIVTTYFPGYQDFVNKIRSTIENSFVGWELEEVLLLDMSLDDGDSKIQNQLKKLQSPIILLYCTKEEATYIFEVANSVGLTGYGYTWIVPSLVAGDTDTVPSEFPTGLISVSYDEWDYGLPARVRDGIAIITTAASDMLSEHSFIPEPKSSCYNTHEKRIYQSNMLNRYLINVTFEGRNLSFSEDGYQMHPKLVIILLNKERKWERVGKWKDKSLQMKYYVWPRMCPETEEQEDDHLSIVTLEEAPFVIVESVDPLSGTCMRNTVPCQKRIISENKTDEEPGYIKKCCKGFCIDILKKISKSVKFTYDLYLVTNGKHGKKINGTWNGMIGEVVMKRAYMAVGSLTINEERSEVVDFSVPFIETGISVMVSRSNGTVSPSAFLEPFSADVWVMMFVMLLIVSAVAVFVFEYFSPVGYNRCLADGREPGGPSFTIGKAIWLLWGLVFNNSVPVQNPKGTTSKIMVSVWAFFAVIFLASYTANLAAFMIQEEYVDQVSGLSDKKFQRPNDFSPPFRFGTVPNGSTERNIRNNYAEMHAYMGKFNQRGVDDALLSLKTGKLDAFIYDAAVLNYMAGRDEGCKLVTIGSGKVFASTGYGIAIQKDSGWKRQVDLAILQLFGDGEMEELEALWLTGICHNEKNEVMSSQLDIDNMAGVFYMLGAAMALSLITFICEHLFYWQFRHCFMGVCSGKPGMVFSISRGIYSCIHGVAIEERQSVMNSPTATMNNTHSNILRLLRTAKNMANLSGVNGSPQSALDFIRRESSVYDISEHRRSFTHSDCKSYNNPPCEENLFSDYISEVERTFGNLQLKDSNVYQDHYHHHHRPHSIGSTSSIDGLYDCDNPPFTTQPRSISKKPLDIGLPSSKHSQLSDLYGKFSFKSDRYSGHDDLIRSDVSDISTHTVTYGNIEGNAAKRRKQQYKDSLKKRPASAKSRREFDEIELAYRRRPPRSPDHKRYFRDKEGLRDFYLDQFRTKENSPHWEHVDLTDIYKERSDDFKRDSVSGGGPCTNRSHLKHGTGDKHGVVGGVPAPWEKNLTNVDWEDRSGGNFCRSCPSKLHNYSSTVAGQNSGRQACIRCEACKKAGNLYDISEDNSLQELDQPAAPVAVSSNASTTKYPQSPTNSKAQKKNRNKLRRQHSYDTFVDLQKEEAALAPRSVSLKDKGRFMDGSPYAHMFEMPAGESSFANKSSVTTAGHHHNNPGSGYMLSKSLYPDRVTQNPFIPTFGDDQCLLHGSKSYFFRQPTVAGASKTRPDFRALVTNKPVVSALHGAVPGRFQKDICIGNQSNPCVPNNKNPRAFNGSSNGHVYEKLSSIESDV

`Cc1ccc(CN2CC[C@@H](N3CC[C@@H](c4ccc(O)cc4)[C@H](F)C3)C2=O)cc1` [Example 46, P-4, (R)-3-((3S,4S)-3-fluoro-4-(4-hydroxyphenyl)piperidin-1-yl)-1-(4-methylbenzyl)pyrrolidin-2-one]: the immobility time entry in the test with mice is on record as “statistically significant decrease in immobility time”.
`O=C1C(N2CCC(c3ccc(O)cc3)CC2)CCN1Cc1ccc(F)cc1` (racemic) [Example 1, 1-(4-Fluorobenzyl)-3-(4-(4-hydroxyphenyl)piperidin-1-yl)pyrrolidin-2-one]: the “occupancy of brain-resident NR2B-subtype receptors (in words)” value on NR2B-subtype receptors is “occupies brain-resident NR2B-subtype receptors”. Further, the values for the Ki in test [1] (read-out: NR2B Binding Ki) and in test [1] (read-out: binding Ki) were 3 nM and 4 nM, respectively.
In the case of `O=C1C(N2CCCC(c3ccc(O)cc3)C2)CCCN1Cc1ccc(Cl)cc1` (stereo not shown) [Example 42, 1′-(4-Chlorobenzyl)-3-(4-hydroxyphenyl)-[1,3′-bipiperidin]-2′-one], the Ki in test [1] (read-out: NR2B Binding Ki) came to 720 nM.
Same read-out and setting: the figure for `Cc1ccc(CN2CC[C@H](N3CC[C@H](c4ccc(O)cc4)[C@@H](F)C3)C2=O)cc1F` [Example 47, P-2, (S)-3-((3R,4R)-3-fluoro-4-(4-hydroxyphenyl)piperidin-1-yl)-1-(3-fluoro-4-methylbenzyl)pyrrolidin-2-one] is 470 nM; for `C[C@@H](c1ccc(F)cc1)N1CCC(N2CCC(c3ccc(O)cc3)C(F)(F)C2)C1=O` (single isomer, unassigned) [Example 56, P-4] it is 660 nM.
Same read-out and setting: the figure for `O=C1C(N2CCC(c3ccc(O)cc3)C(F)(F)C2)CCN1Cc1ccc(F)c(F)c1` (stereo not shown) [Example 97, 3-(3,3-Difluoro-4-(4-hydroxyphenyl)piperidin-1-yl)-1-(3,4-difluorobenzyl)pyrrolidin-2-one] is 45 nM.
On to `O=C1[C@@H](N2CCC(c3ccc(O)cc3)C(F)(F)C2)CCN1Cc1ccc(Cl)c(F)c1` (single isomer, unassigned) [Example 107, P-1], for which the Ki in test [1] (read-out: NR2B Binding Ki) was 1200 nM.
`O=C1[C@H](N2CC[C@H](c3ccc(O)cc3)[C@@H](F)C2)CCN1Cc1ccc(F)cc1` [Example 48, P-4]: the Ki in test [1] (read-out: NR2B Binding Ki) turned out to be 13 nM.
